One assay addresses HIV integrase (Human immunodeficiency virus type 1 group M subtype B, UniProt P04585). Kind of assay: integrase strand transfer assay (STA). The conditions noted are these: integrase strand transfer; read-out: IC50 in the STA assay. Type of assay: biochemical.
Another assay concerns HXB2 virus. Kind of assay: microbe, parasite or virus in culture. In kind it is cell-based, HIV. The conditions noted are these: Human immunodeficiency virus 1, HXB2, HeLaP4-2, read-out: antiviral IC50 (SCIA-B). As for the experimental part: An assay for measuring the inhibition of acute HIV infection with HeLa P4-2 cells in a single cycle infectivity assay (SCIA-A) was conducted in accordance with Joyce, J. G., et al., J. Biol. Chem., 2002, 277, 45811, Hazuda, D. J. et al., Science, 2000, 287, 646, and Kimpton, J. et al, J. Virol. 1992, 66, 2232. Infectious virus was produced by transfecting 293T cells with HIV proviral DNA in which the integrase gene was derived from a IIIB isolate and the remainder of the HIV genome was derived from the NL4-3 isolate.
This assay B for measuring the inhibition of acute HIV infection with HeLa P4-2 cells in a single cycle infectivity assay (SCIA-B) is essentially the same as Assay A described above, except that HXB2 virus is employed instead of the IIIb isolate.

`O=c1cc(-c2ccn[nH]2)c2cccnc2n1O` [Example 198, 1-hydroxy-4-(1H-pyrazol-5-yl)-1,8-naphthyridin-2(1H)-one]: the IC50 – broadly, the concentration at which inhibition is half-maximal – at HIV integrase was less than 50 µM; in the assay on HXB2 virus it was less than 100 µM.
As for `O=c1cc(-c2cccc(CO)c2)c2cccnc2n1O` [Example 183, 1-hydroxy-4-[3-(hydroxymethyl)phenyl]-1,8-naphthyridin-2(1H)-one], the results for the 50% inhibitory concentration (IC50) on HIV integrase and in the assay on HXB2 virus were less than 50 µM and less than 100 µM, respectively.
On to `O=c1cc(-c2ccc3cc[nH]c3c2)c2cccnc2n1O` [Example 186, 1-hydroxy-4-(1H-indol-6-yl)-1,8-naphthyridin-2(1H)-one], for which the figures for the IC50 on HIV integrase and in the assay with HXB2 virus were less than 50 µM and less than 100 µM, respectively.
In the same order, the values of `O=c1cc(NCCc2ccccc2)c2cccnc2n1O` [Example 132, 1-hydroxy-4-[(2-phenylethyl)amino]-1,8-naphthyridin-2(1H)-one] are less than 50 µM and less than 100 µM.
Turning to `O=c1cc(-c2cn[nH]c2)c2cccnc2n1O` [Example 244, 1-Hydroxy-4-(pyrazol-4-yl)-1,8-naphthyridin-2-(1H)-one], the IC50 on HIV integrase is less than 50 µM; in the assay with HXB2 virus, less than 100 µM.
The like results for `CCOC(=O)c1c(Nc2ccccc2)c2cccnc2n(O)c1=O` [Example 127, Ethyl 4-anilino-1-hydroxy-2-oxo-1,2-dihydro-1,8-naphthyridine-3-carboxylate] were, in that order, less than 50 µM and less than 100 µM.
In the same order, the values of `CS(=O)(=O)Nc1ccccc1-c1cc(=O)n(O)c2ncccc12` [Example 201, N-[2-(1-hydroxy-2-oxo-1,2-dihydro-1,8-naphthyridin-4-yl)phenyl]methanesulfo-namide] are less than 50 µM and less than 100 µM.
`O=c1c(-c2cccc(Br)c2)c(O)c2cccnc2n1O` [Example 44, 3-(3-bromophenyl)-1,4-dihydroxy-1,8-naphthyridin-2(1H)-one]: the IC50 on HIV integrase is less than 50 µM; in the assay with HXB2 virus it was less than 100 µM.
The like results for `CC(NCc1cccc(Cl)c1)c1cnc2c(c1)c(O)c(-c1ccccc1)c(=O)n2O` (stereo not shown) [Example 76, 6-{1-[(3-Chlorobenzyl)amino]ethyl}-1,4-dihydroxy-3-phenyl-1,8-napthyridin-2(1H)-one] were, in that order, less than 50 µM and less than 100 µM.
The like results for `CS(=O)(=O)Nc1cccc(-c2cc(=O)n(O)c3ncccc23)c1` [Example 175, N-[3-(1-hydroxy-2-oxo-1,2-dihydro-1,8-naphthyridin-4-yl)phenyl]methanesulfo-namide] were, in that order, less than 50 µM and less than 100 µM.
For `O=c1cc(N2CCN(Cc3ccccc3)CC2)c2cccnc2n1O` [Example 136, 4-(4-benzylpiperazin-1-yl)-1-hydroxy-1,8-naphthyridin-2(1H)-one], the IC50 was less than 50 µM at HIV integrase and less than 100 µM with HXB2 virus.
In the same order, the values of `O=c1cc(N[C@@H]2CCN(Cc3ccccc3)C2)c2cccnc2n1O` [Example 113, 4-{[(3R)-1-Benzylpyrrolidin-3-yl]amino}-1-hydroxy-1,8-naphthyridin-2(1H)-one] are less than 50 µM and less than 100 µM.
As to `O=c1cc(NCc2cccnc2)c2cccnc2n1O` [Example 162, 1-hydroxy-4-[(3-pyrindinylmethyl)amino]-1,8-naphthyridin-2 (1H-one)], the half-inhibitory concentration (IC50) on HIV integrase is less than 50 µM; in the assay with HXB2 virus, less than 100 µM.
In the same order, the values of `NC1(c2cccc(-c3ccc(-c4cc(=O)n(O)c5ncccc45)cc3)c2)CC1` [Example 238, 4-[3′-(1-aminocyclopropyl)biphenyl-4-yl]-1-hydroxy-1,8-naphthyridin-2(1H)-one] are less than 50 µM and less than 100 µM.
`COC(=O)c1cnc2c(c1)c(O)c(C(=O)NCc1ccccc1)c(=O)n2O` [Example 91, Methyl 6-[(benzylamino)carbonyl]-5,8-dihydroxy-7-oxo-7,8-dihydro-1,8-naphthyridine-3-carboxylate]: the concentration for half-maximal inhibition (IC50) on HIV integrase is less than 50 µM; in the assay with HXB2 virus it was less than 100 µM.
The like results for `CCOC(=O)c1ccnc2c1c(O)cc(=O)n2O` [Example 88, Ethyl 5,8-dihydroxy-7-oxo-7,8-dihydro-1,8-naphthyridine-4-carboxylate] were, in that order, less than 50 µM and less than 100 µM.
The like results for `CCOC(=O)c1c(O)c2cc(-c3cccc(OC)c3)cnc2n(O)c1=O` [Example 62, Ethyl 1,4-dihydroxy-6-(3-methoxyphenyl)-2-oxo-1,2-dihydro-1,8-naphthyridine-3-carboxylate] were, in that order, less than 50 µM and less than 100 µM.
As to `O=c1c(-c2ccccc2F)c(O)c2cccnc2n1O` [Example 32, 3-(2-Fluorophenyl)-1,4-dihydroxy-1,8-naphthyridin-2(1H)-one], the IC50 on HIV integrase is less than 50 µM; with HXB2 virus, less than 100 µM.
Take `O=c1cc(-c2cncnc2)c2cccnc2n1O` [Example 197, 1-hydroxy-4-pyrimidin-5-yl-1,8-naphthyridin-2(1H)-one]: the IC50 at HIV integrase is less than 50 µM; with HXB2 virus it was less than 100 µM.
In the same order, the values of `CN1C(=O)c2c(c3cccnc3n(O)c2=O)NC1c1ccccc1-c1ccccc1` (stereo not shown) [Example 217, 2-Biphenyl-2-yl-6-hydroxy-3-methyl-2,3-dihydropyrimido[5,4-c]-1,8-naphthyridine-4,5(1H, 6H)dione] are less than 50 µM and less than 100 µM.
`O=C(NCCc1ccccc1)c1ccc2c(c1)CN(c1cc(=O)n(O)c3ncccc13)CC2` [Example 260, 4-[7-(phenylethylaminocarbonyl)-3,4-dihydroisoquinolin-2(1H)-yl]-1-hydroxy-1,8-naphthyridin-2(1H)-one]: the IC50 is less than 50 µM on HIV integrase and less than 100 µM with HXB2 virus.
With `CCOC(=O)CN1CCN(c2cc(=O)n(O)c3ncccc23)CC1` [Example 164, ethyl[4-(1-hydroxy-2-oxo-1,2-dihydro-1,8-naphthyridin-4-yl)-1-piperazinyl]acetate], the IC50 at HIV integrase was less than 50 µM; with HXB2 virus, less than 100 µM.
As for `CCOC(=O)c1c(O)c2cc(-c3cc(C)cc(C)c3)cnc2n(O)c1=O` [Example 65, Ethyl 6-(3,5-dimethylphenyl)-1,4-dihydroxy-2-oxo-1,2-dihydro-1,8-napthyridine-3-carboxylate], the values for the IC50 at HIV integrase and with HXB2 virus were less than 50 µM and less than 100 µM, respectively.
In the same order, the values of `O=C(NCC(F)(F)F)c1c(O)c2cccnc2n(O)c1=O` [Example 22, 1,4-Dihydroxy-2-oxo-N-(2,2,2-trifluoroethyl)-1,2-dihydro-1,8-naphthyridine-3-carboxamide] are less than 50 µM and less than 100 µM.
The like results for `CN(C)C(=O)c1cccc(-c2cc(=O)n(O)c3ncccc23)c1` [Example 181, 3-(1-hydroxy-2-oxo-1,2-dihydro-1,8-naphthyridin-4-yl)-N,N-dimethylbenzamide] were, in that order, less than 50 µM and less than 100 µM.
In the same order, the values of `CCOC(=O)c1c(O)c2cc(C(=O)N3CCC(Cc4ccccc4)C3)cnc2n(O)c1=O` (stereo not shown) [Example 85, Ethyl 6-[(3-benzylpyrrolidin-1-yl)carbonyl]-1,4-dihydroxy-2-oxo-1,2-dihydro-1,8-naphthyridine-3-carboxylate] are less than 50 µM and less than 100 µM.
With `O=C(NCc1ccccc1)c1ccc2c(c1)CCN(c1cc(=O)n(O)c3ncccc13)C2` [Example 261, 4-[6-(benzylaminocarbonyl)-3,4-dihydroisoquinolin-2(1H)-yl]-1-hydroxy-1,8-naphthyridin-2(1H)-one], the IC50 was less than 50 µM at HIV integrase and less than 100 µM in the assay on HXB2 virus.
On to `CCOC(=O)c1c(O)c2cc(C(=O)N3CCCCC3CCc3ccccc3)cnc2n(O)c1=O` (stereo not shown) [Example 82, Ethyl 1,4-dihydroxy-2-oxo-6-{[2-(2-phenylethyl)piperidin-1-yl]carbonyl}-1,2-dihydro-1,8-naphthyridine-3-carboxylate], for which the IC50 at HIV integrase was less than 50 µM; in the assay on HXB2 virus it was less than 100 µM.
As for `O=c1cc(O)c2cccnc2n1O` [Example 2, 1,4-Dihydroxy-1,8-naphthyridin-2(1B)-one], the IC50 on HIV integrase is less than 50 µM; in the assay with HXB2 virus, less than 100 µM.
On to `O=c1c(C2CCCC2)c(O)c2cccnc2n1O` [Example 41, 3-Cyclopentyl-1,4-dihydroxy-1,8-naphthyridin-2(1H)-one], for which the IC50 was less than 50 µM on HIV integrase and less than 100 µM in the assay on HXB2 virus.
Consider `CC(=O)Nc1cccc(-c2cc(=O)n(O)c3ncccc23)c1` [Example 194, N-[3-(1-hydroxy-2-oxo-1,2-dihydro-1,8-naphthyridin-4-yl)phenyl]acetamide], for which the values for the IC50 at HIV integrase and in the assay with HXB2 virus were less than 50 µM and less than 100 µM, respectively.
In the same order, the values of `O=c1c(-c2ccccc2)c(O)c2cc(-c3ccc4ccccc4c3)cnc2n1O` [Example 56, 1,4-Dihydroxy-6-(2-naphthyl)-3-phenyl-1,8-naphthyridin-2(1H)-one] are less than 50 µM and less than 100 µM.
Turning to `NCc1cccc(-c2cncc(-c3cc(=O)n(O)c4ncccc34)c2)c1` [Example 190, 4-{5-[3-(aminomethyl)phenyl]pyridin-3-yl}-1-hydroxy-1,8-naphthyridin-2(1H)one], the figures for the IC50 on HIV integrase and in the assay with HXB2 virus were less than 50 µM and less than 100 µM, respectively.
The like results for `Nc1cnc2c(c1)c(O)c(-c1ccccc1)c(=O)n2O` [Example 250, 6-amino-1,4-dihydroxy-3-phenyl-1,8-naphthyridin-2(1H)-one] were, in that order, less than 50 µM and less than 100 µM.
Consider `O=c1cc(NC(CN2CCOCC2)c2ccccc2)c2cccnc2n1O` (stereo not shown) [Example 107, 1-Hydroxy-4-[(2-morpholin-4-yl-1-phenylethyl)amino]-1,8-naphthyridin-2(1H)-one], for which the half-maximal inhibitory concentration (IC50) at HIV integrase was less than 50 µM; in the assay on HXB2 virus it was less than 100 µM.

Source of the values: patent US20100056516A1 (priority 2006, published 2010).
